# Measurements: patent US10780174B2, “Lipid-linked prodrugs” (The University of British Columbia, priority 2015, dated 2020)
# Entries after “also recorded” stand apart in the source; their conditions may differ. Like-named read-outs stand apart in the source and are kept apart here.
# What was measured:
# [1] = tested on: immunostimulatory effects of LNP-pDNA (plasma cytokines); experiment: In vivo immune suppression by LD-DEX prodrugs, LNP-pDNA model; parameters: species or system C57Bl/6 mice; settings: mice, i.v., 1 mg/kg of pDNA, 2 h post injection
# Procedure: (§1) 6-8 Weeks old female C57Bl/6 mice (Charles River Laboratories™, Wilmington, Mass.) were injected intravenously with lipid nanoparticles containing CpG DNA oligonucleotides (10 mg/kg), mRNA (3 mg/kg) or plasmid DNA (pDNA) (1 mg/kg). Animals were euthanized 2 hours post-injection and blood was collected via intracardiac or saphenous sampling. Plasma was separated from whole blood by centrifugation and analyzed for proinflammatory cytokines using the Mesoscale Proinflammatory Multiplex™ kit (Rockville, Md.) according to manufacturer's instruction. All procedures were approved by the Animal Care Committee at the University of British Columbia and were performed in accordance with guidelines established by the Canadian Council on Animal Care.
# [2] = Particle size and polydispersity of LNP containing prodrug (dynamic light scattering); format: physicochemical; settings: PDI in brackets
# [3] = Prodrug incorporation (entrapment) in lipid nanoparticles, UHPLC; format: physicochemical
# [4] = tested on: purified porcine esterase; settings: pig, 1 mg/mL LNP
# [5] = tested on: IL1β expression in RAW 264.7 mouse macrophage cells; experiment: In vitro immune suppression, LPS-treated RAW 264.7 cells, IL1β qRT-PCR; format: cell-based; settings: 2 ng/mL LPS, 4 h
# Procedure: RAW 264.7 mouse macrophage cells were seeded at 250,000 cells per mL on 12-well plates and incubated at 37° C. overnight. Lipopolysaccharide (LPS) was dissolved in phosphate buffered saline at a concentration of 2 μg/ml. Cells were treated with lipid nanoparticles containing LD-DEX prodrugs and 2 ng/ml of LPS for 4 hours. This LPS concentration was chosen due to its ability to increase IL1β expression approximately 1000 times as compared to untreated cells. At the end of the incubation period, culture medium was aspirated and cellular RNA was extracted using the Purelink RNA™ extraction kit according to manufacturer's protocol (Life Technologies™, Burlington, ON). The concentration of extracted RNA was determined using a Nanodrop Lite™ (Thermo Fisher™). 1 μg of RNA was converted to cDNA using the High Capacity cDNA Reverse Transcription kit (Life Technologies™, Burlington, ON). In order to validate the sample preparation, a no template control and a negative reverse transcriptase control were included. The cDNA was then quantified using comparative real-time qPCR where the Ct (threshold cycle) values are converted to relative quantity using the 2-ΔΔCT method. The primer-probe sets were designed to bind to cDNA of Interleukin-1β(IL1β). Hypoxanthine-guanine phosphoribosyltransferase (HPRT) was chosen as the endogenous normalizer gene, which is known to maintain consistent levels with varying treatments.
# [6] = tested on: immunostimulatory effects of LNP-mRNA (plasma cytokines); experiment: In vivo immune suppression by LD-DEX prodrugs, LNP-mRNA model; parameters: species or system C57Bl/6 mice; settings: mice, 3 mg/kg of mRNA, 2 h post injection
# Procedure: as §1
# [7] = tested on: immunostimulatory effects of LNP-CpG (plasma cytokines); experiment: In vivo immune suppression by LD-DEX prodrugs, LNP-CpG model; parameters: species or system C57Bl/6 mice; settings: mice, i.v., 10 mg/kg of CpG, 2 h post injection
# Procedure: as §1
# [8] = tested on: purified porcine esterase; experiment: In vitro degradation of lipid-linked prodrugs in LNP, purified esterase in PBS
# [9] = In vitro degradation of lipid-linked prodrugs in LNP, mouse plasma; format: in vitro ADME
# [10] = LD-DEX prodrug in ionizable LNP
structure (smiles),measurement,setting,value
"CCCCC/C=C\C/C=C\CCCCCCCCOC(=O)CCC(=O)OCC(=O)[C@@]1(O)[C@H](C)C[C@H]2[C@@H]3CCC4=CC(=O)C=C[C@]4(C)[C@@]3(F)[C@@H](O)C[C@@]21C [LD03-DEX, linoleyl 2-((8S,9R,10S,11S,13S,14S,16R,17R)-9-fluoro-11,17-dihydroxy-10,13,16-trimethyl-3-oxo-6,7,8,9,10,11,12,13,14,15,16,17-dodecahydro-3H-cyclopenta[a]phenanthren-47-yl)-2-oxoethyl succinate]",plasma cytokine levels versus control LNP-pDNA,[1]; 1 mg/kg,efficiently suppressed cytokine levels
same,plasma cytokine levels versus control LNP-pDNA,"[1]; listed as LD03, 1 mg/kg",suppresses the immunostimulatory effects of LNP-pDNA
same,Particle size (PDI) PC-Chol LNP,[2]; LD-DEX prodrug in PC-Chol LNP,64 (0.06) nm
same,Particle size (PDI) [ionizable LNP],[2]; [10],[48 (0.04)] nm
same,% Entrapment PC-Chol LNP,[3]; LD-DEX prodrug in PC-Chol LNP,94%
same,% Entrapment [ionizable LNP],[3]; [10],[100] %
same,prodrug degradation over 24 h in purified esterase,[4],degraded at a faster rate than LD02-DEX
same,IL1β expression versus control LNP without prodrug,[5],able to reduce IL1β expression
same,plasma cytokine levels versus control LNP-mRNA,[6]; 3 mg/kg,significantly reduced levels
same,plasma cytokine levels versus control LNP-mRNA,"[6]; listed as LD03, 3 mg/kg",suppresses the immunostimulatory effects of LNP-mRNA
same,plasma TNFα and KC/GRO levels versus control LNP-CpG,[7],marked reduction in cytokine levels
same,prodrug degradation over 24 h in purified esterase,"[8]; LNP, 0, 2, 4 and 24 h",progressively degraded
same,prodrug cleavage in PBS containing isolated esterases,"[8]; LNP, 1 or 4 h incubation",progressive prodrug cleavage
same,release of active drug (UPLC chromatogram) in purified esterase,"[8]; LNP, 24 h incubation",a peak corresponding to active dexamethasone (DEX) appeared
same,prodrug degradation over 24 h in mouse plasma,"[9]; LNP, 0, 2, 4 and 24 h",progressively degraded; also recorded: degraded at a faster rate than LD02-DEX
same,prodrug cleavage in plasma,"[9]; LNP, 1 or 4 h incubation in plasma",progressive prodrug cleavage
same,prodrug cleavage/degradation after 1 h in plasma,"[9]; LNP, 1 h, 37° C., mouse plasma",significant cleavage
same,release of active drug (UPLC chromatogram) in mouse plasma,"[9]; LNP, 24 h incubation",a peak corresponding to active dexamethasone (DEX) appeared
